pIC50: −log10 of the molar value.
Key:
[1] = tested on: Eca-109/VCR; assay: Induction of apoptosis in human Eca-109/VCR cells assessed as late apoptotic cells at 2.5 uM incubated for 60 hrs in presence of vincristine by Annexin V-FITC/PI staining based flow cytometric analysis (reference value: 0.56%); format: functional
[2] = tested on: Eca-109/VCR; assay: Induction of apoptosis in human Eca-109/VCR cells assessed as viable cells at 2.5 uM incubated for 60 hrs in presence of vincristine by Annexin V-FITC/PI staining based flow cytometric analysis (reference value: 97.3%); format: functional; conditions: read-out: Activity
[3] = tested on: Eca-109/VCR; assay: Induction of apoptosis in human Eca-109/VCR cells assessed as necrotic cells at 2.5 uM incubated for 60 hrs in presence of vincristine by Annexin V-FITC/PI staining based flow cytometric analysis (reference value: 0.10%); format: functional
[4] = tested on: Eca-109/VCR; assay: Induction of apoptosis in human Eca-109/VCR cells assessed as necrotic cells at 5 uM incubated for 60 hrs in presence of vincristine by Annexin V-FITC/PI staining based flow cytometric analysis (reference value: 0.10%); format: functional
[5] = tested on: Eca-109/VCR; assay: Induction of apoptosis in human Eca-109/VCR cells assessed as viable cells at 5 uM incubated for 60 hrs by Annexin V-FITC/PI staining based flow cytometric analysis (reference value: 97.4%); format: functional; conditions: read-out: Activity
[6] = tested on: Eca-109/VCR; assay: Induction of apoptosis in human Eca-109/VCR cells assessed as late apoptotic cells at 5 uM incubated for 60 hrs in presence of vincristine by Annexin V-FITC/PI staining based flow cytometric analysis (reference value: 0.56%); format: functional
[7] = tested on: Eca-109/VCR; assay: Induction of apoptosis in human Eca-109/VCR cells assessed as early apoptotic cells at 5 uM incubated for 60 hrs by Annexin V-FITC/PI staining based flow cytometric analysis (reference value: 1.66%); format: functional
[8] = tested on: Eca-109/VCR; assay: Induction of apoptosis in human Eca-109/VCR cells assessed as late apoptotic cells at 5 uM incubated for 60 hrs by Annexin V-FITC/PI staining based flow cytometric analysis (reference value: 0.70%); format: functional
[9] = tested on: Eca-109/VCR; assay: Induction of apoptosis in human Eca-109/VCR cells assessed as necrotic cells at 2.5 uM incubated for 60 hrs by Annexin V-FITC/PI staining based flow cytometric analysis (reference value: 0.22%); format: functional
[10] = tested on: Eca-109/VCR; assay: Induction of apoptosis in human Eca-109/VCR cells assessed as early apoptotic cells at 2.5 uM incubated for 60 hrs by Annexin V-FITC/PI staining based flow cytometric analysis (reference value: 1.66%); format: functional
[11] = tested on: Eca-109/VCR; assay: Cytotoxicity against human Eca-109/VCR cells assessed as reduction in cell viability at 5.0 uM incubated for 48 hrs by CCK-8 assay relative to control; format: functional
[12] = tested on: Eca-109/VCR; assay: Induction of apoptosis in human Eca-109/VCR cells assessed as viable cells at 5 uM incubated for 60 hrs in presence of vincristine by Annexin V-FITC/PI staining based flow cytometric analysis (reference value: 97.3%); format: functional; conditions: read-out: Activity
[13] = tested on: Eca-109/VCR; assay: Induction of apoptosis in human Eca-109/VCR cells assessed as late apoptotic cells at 2.5 uM incubated for 60 hrs by Annexin V-FITC/PI staining based flow cytometric analysis (reference value: 0.70%); format: functional
[14] = tested on: Eca-109/VCR; assay: Induction of apoptosis in human Eca-109/VCR cells assessed as necrotic cells at 5 uM incubated for 60 hrs by Annexin V-FITC/PI staining based flow cytometric analysis (reference value: 0.22%); format: functional
[15] = tested on: ECa-109 cell line; assay: Cytotoxicity against human Eca-109 cells incubated for 48 hrs by CCK-8 assay; format: functional, cell-based; conditions: ECa-109, 48 h
[16] = Reversal fold, ratio of vincristine IC50 to vincristine IC50 in presence of test compound for reversal of drug resistance in human Eca-109/VCR cells at 5 uM incubated for 48 hrs by CCK-8 assay; format: functional
[17] = tested on: Eca-109/VCR; assay: Induction of apoptosis in human Eca-109/VCR cells assessed as viable cells at 2.5 uM incubated for 60 hrs by Annexin V-FITC/PI staining based flow cytometric analysis (reference value: 97.4%); format: functional; conditions: read-out: Activity

SMILES	Cell viability (% of control) [11]	Ratio IC50 [16]	other results
COc1ccc(CCN(C)CCCC(C#N)(c2ccc(OC)c(OC)c2)C(C)C)cc1OC (configuration not stated) [VERAPAMIL]	98.9%		Activity [1]: 0.85%; viability at 2.5 µM [2]: 96%; Activity [3]: 0.17%; Activity [4]: 0.34%; viability at 5 µM [5]: 96.2%; Activity [6]: 5.95%; Activity [7]: 1.12%; Activity [8]: 0.72%; Activity [9]: 0.2%; Activity [10]: 1.19%; viability at 5 µM [12]: 75.4%; Activity [13]: 0.55%; Activity [14]: 0.13%
COc1cccc2c1C(=O)c1c(O)c3c(c(O)c1C2=O)C[C@@](O)(C(=O)CO)C[C@@H]3O[C@H]1C[C@H](N)[C@H](O)[C@H](C)O1 [DOXORUBICIN]			pIC50 [15]: 5.68
COc1cc2c(cc1OC)C(Cc1ccc(OC)c(OS(=O)(=O)c3ccccc3F)c1)N(C)CC2 (configuration not stated)	98.9%	16.5	
COc1cc2c(cc1OC)C(Cc1ccc(OC)c(OS(=O)(=O)c3ccccc3)c1)N(C)CC2 (configuration not stated)	102.6%	24	
COc1cc2c(cc1OC)C(Cc1ccc(OC)c(OCC3CC3)c1)N(C)CC2 (configuration not stated)	105.6%	6.3	
COc1cc2c(cc1OC)C(Cc1ccc(OC)c(OS(=O)(=O)c3ccccc3[N+](=O)[O-])c1)N(C)CC2 (configuration not stated)	102%	253.3	
COc1cc2c(cc1OC)C(Cc1ccc(OC)c(OS(=O)(=O)c3ccc(C#N)cc3)c1)N(C)CC2 (configuration not stated)	96%	235.4	
COc1cc2c(cc1OC)C(Cc1ccc(OC)c(OCC3CCC3)c1)N(C)CC2 (configuration not stated)	102.7%	122.6	
COc1cc2c(cc1OC)C(Cc1ccc(OCCCc3ccccc3)c(OC)c1)N(C)CC2 (configuration not stated)	103.3%	162.4	
COc1cc2c(cc1OC)C(Cc1ccc(OCc3ccc(Br)cc3)c(OC)c1)N(C)CC2 (configuration not stated)	91.1%	201.2	
COc1cc2c(cc1OC)C(Cc1ccc(OC)c(OCc3ccc(Cl)cc3Cl)c1)N(C)CC2 (configuration not stated)	55.4%	412.3	
COc1cc2c(cc1OC)C(Cc1ccc(OC)c(OS(=O)(=O)c3ccc4ccccc4c3)c1)N(C)CC2 (configuration not stated)	94.7%	340.5	
COc1cc2c(cc1OC)C(Cc1ccc(OC)c(OCc3ccc(Br)cc3)c1)N(C)CC2 (configuration not stated)	97.8%	158	
COc1cc2c(cc1OC)C(Cc1ccc(OCC3CCC3)c(OC)c1)N(C)CC2 (configuration not stated)	107.9%	188.7	
COc1cc2c(cc1OC)C(Cc1ccc(OC)c(OS(=O)(=O)c3ccc(C(F)(F)F)cc3)c1)N(C)CC2 (configuration not stated)	100.5%	371.9	
COC(=O)c1sccc1S(=O)(=O)Oc1cc(CC2c3cc(OC)c(OC)cc3CCN2C)ccc1OC (configuration not stated)	100.7%	12.3	
COc1cc2c(cc1OC)C(Cc1ccc(OS(=O)(=O)c3ccc(C#N)cc3)c(OC)c1)N(C)CC2 (configuration not stated)	99.9%	168.5	
COc1cc2c(cc1OC)C(Cc1ccc(OC)c(OCCCc3ccccc3)c1)N(C)CC2 (configuration not stated)	96.9%	124.1	
COc1cc2c(cc1OC)CN(CCc1ccc(NC(=O)c3cc(OC)c(OC)cc3NC(=O)c3cnc4ccccc4c3)cc1)CC2 [TARIQUIDAR]	84.8%		Activity [1]: 7.6%; viability at 2.5 µM [2]: 63.2%; Activity [3]: 0.47%; viability at 2.5 µM [17]: 96.1%; Activity [4]: 0.57%; viability at 5 µM [5]: 95.6%; Activity [6]: 7%; Activity [7]: 3.18%; Activity [9]: 0.22%; Activity [10]: 1%; viability at 5 µM [12]: 63.4%; Activity [13]: 0.64%; Activity [14]: 0.21%
COc1cc2c(cc1OC)C(Cc1ccc(OC)c(OCCc3ccccc3)c1)N(C)CC2 (configuration not stated)	102.4%	12.3	
C=CCCCCOc1cc(CC2c3cc(OC)c(OC)cc3CCN2C)ccc1OC (configuration not stated)	98.2%	15.2	
COc1cc2c(cc1OC)C(Cc1ccc(OCc3ccc(Cl)cc3Cl)c(OC)c1)N(C)CC2 (configuration not stated)	92.4%	307.6	
